{"source": "patent US4678775A", "about": "“Method of controlling pests” (priority 1984, dated 1987)", "key": {"[1]": {"target": "T1, dopamine-sensitive adenylate cyclase in rat caudate nucleus (Rattus norvegicus, UniProt P18901)", "T1 construct": "in the rat caudate nucleus; from tissue; host or cells: rat caudate nucleus", "T1 sequence (P18901 whole entry)": "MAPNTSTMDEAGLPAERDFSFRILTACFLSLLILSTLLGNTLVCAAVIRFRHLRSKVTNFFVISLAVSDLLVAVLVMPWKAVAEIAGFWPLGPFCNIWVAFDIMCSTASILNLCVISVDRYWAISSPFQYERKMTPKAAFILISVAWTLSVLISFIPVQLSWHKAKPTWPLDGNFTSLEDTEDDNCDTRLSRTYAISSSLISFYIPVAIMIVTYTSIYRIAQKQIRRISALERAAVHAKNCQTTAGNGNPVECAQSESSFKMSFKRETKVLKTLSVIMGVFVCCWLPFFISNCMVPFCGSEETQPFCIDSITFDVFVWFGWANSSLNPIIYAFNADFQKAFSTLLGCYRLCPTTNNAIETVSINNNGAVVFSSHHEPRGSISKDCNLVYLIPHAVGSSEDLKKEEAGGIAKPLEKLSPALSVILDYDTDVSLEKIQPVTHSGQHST", "test": "Adenylate cyclase stimulation in rat caudate nucleus", "format": "biochemical"}, "[2]": {"system": "adenylate cyclase in nerve cord of tobacco hornworm", "test": "Adenylate cyclase activation in broken cell preparations of tobacco hornworm nerve cord", "format": "biochemical, tobacco hornworm (Manducca sexta)", "experimental": "Otherwise, the procedure is identical to that described above.\nThe tissue is homogenized (usually 15 mg/ml) as above in 6 mM Tris maleate, pH 7.4. […] This is done to cancel out the effects of dopamine and serotonin receptors which are usually present in nerve cord.\nAs detailed previously, the adenylate cyclase assay, either in the firefly or in other insect pest, is also used to identify a direct stimulator of adenylate cyclase."}, "[3]": {"system": "tobacco hornworms (Manducca sexta)", "test": "In vivo leaf test (antifeeding) on tomato leaves with tobacco hornworm larvae", "settings": "for effect of addition of IBMX on antifeeding / pesticidal activity: with PDE inhibitor IBMX"}, "[4]": {"target": "T2, Beta1 and Beta2-adrenergic-stimulated adenylate cyclase in rat liver (Rattus norvegicus, UniProt P10608)", "T2 construct": "adenylate cyclase in rat heart and liver; from tissue; host or cells: rat liver", "T2 sequence (P10608 whole entry)": "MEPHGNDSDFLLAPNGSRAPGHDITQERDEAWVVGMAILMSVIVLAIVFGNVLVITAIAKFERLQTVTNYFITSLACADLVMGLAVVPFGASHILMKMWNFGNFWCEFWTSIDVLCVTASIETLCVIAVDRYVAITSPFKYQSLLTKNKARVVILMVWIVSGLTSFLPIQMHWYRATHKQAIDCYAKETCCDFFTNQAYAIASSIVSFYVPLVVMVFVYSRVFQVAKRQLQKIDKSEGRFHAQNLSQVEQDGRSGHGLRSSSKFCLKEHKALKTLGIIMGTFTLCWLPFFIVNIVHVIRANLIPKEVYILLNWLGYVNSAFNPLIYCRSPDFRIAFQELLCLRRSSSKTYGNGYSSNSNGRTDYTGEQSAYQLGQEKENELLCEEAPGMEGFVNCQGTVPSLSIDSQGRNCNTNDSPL", "test": "Adenylate cyclase stimulation in rat liver", "format": "biochemical"}, "[5]": {"system": "isolated tails of Photinus males", "test": "Stimulation of light production after injection into transected, isolated firefly tails", "format": "in vivo", "settings": "for EC50 for stimulated light emission: injected into isolated tails"}, "[6]": {"system": "octopamine-sensitive adenylate cyclase", "settings": "Nathanson et al. 1981; cited from earlier work"}, "[7]": {"system": "octopamine-sensitive adenylate cyclase", "test": "Activation of octopamine-sensitive adenylate cyclase, firefly light organ broken cell preparation", "format": "biochemical, Photinus pyralis"}, "[8]": {"target": "T3, Beta1 and Beta2-adrenergic-stimulated adenylate cyclase in rat heart (Rattus norvegicus, UniProt P18090)", "T3 construct": "adenylate cyclase in rat heart and liver; from tissue; host or cells: rat heart", "T3 sequence (P18090 whole entry)": "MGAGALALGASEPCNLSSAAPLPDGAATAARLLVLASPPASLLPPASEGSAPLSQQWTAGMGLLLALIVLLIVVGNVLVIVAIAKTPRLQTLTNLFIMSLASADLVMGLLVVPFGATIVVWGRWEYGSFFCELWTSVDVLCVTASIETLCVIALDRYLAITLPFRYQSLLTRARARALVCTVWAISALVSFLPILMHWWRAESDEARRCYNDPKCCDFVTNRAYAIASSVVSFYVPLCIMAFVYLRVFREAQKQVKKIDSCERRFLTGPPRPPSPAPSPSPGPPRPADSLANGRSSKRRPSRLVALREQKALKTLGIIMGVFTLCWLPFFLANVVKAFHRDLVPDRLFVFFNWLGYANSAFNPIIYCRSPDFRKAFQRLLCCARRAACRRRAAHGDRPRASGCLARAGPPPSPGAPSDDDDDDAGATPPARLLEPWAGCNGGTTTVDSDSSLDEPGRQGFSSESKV", "test": "Adenylate cyclase stimulation in rat heart", "format": "biochemical"}, "[9]": {"system": "Beta1 and Beta2-adrenergic-stimulated adenylate cyclase in rat heart", "test": "Adenylate cyclase stimulation in rat heart", "format": "biochemical"}, "[10]": {"system": "Beta1 and Beta2-adrenergic-stimulated adenylate cyclase in rat liver", "test": "Adenylate cyclase stimulation in rat liver", "format": "biochemical"}, "[11]": {"system": "adenylate cyclase in the firefly lantern", "test": "Direct activation of adenylate cyclase in firefly lantern (forskolin)", "format": "biochemical, Photinus pyralis", "settings": "FIG. 2, firefly lantern", "text": "The second type of pest controlling compounds (2) useable in the present compositions are direct stimulators of the pest enzyme adenylate cyclase. These compounds bypass the receptor, and interact with one or another of the associated catalytic or regulatory subunits of adenylate cyclase, thereby stimulating the formation of cyclic AMP. Suitable compounds can be determined from assay of pest adenylate cyclase as described above.\nSpecimens of Photinus pyralis were collected in summer, frozen on dry ice, and stored at -90°. […] For each experiment, a number of insects were thawed and maintained at 4° C. […]\nAdenylate cyclase activation by test compounds was measured in test tubes containing (in 0.3 ml) 80 mM Tris-maleate, pH 7.4; 10 mM theophylline; 8 mM MgCl2; 0.1 mM GTP; 0.5 mM ethylene glycol bis(beta-aminoethyl ether)-N,N,N',N'-tetraacetic acid; 2 mM ATP; 0.06 ml of P2 fractions; and the various compounds to be tested. Prior experiments had determined that, under these conditions, octopamine-sensitive adenylate cyclase activity is optimized. […] Cyclic AMP in the supernatant was measured by protein-binding assay, according to the method of Brown et al., Adv. […] Protein concentration was determined by the method of Lowry et al., Journal of Biological Chemistry 193: 265-275 (1951). […]"}, "[12]": {"test": "Cyclic AMP analogue remaining after incubation with nerve cord homogenate", "format": "in vitro ADME, tobacco hornworm", "settings": "in vitro 4 hours; IBMX 0.1 mM; FIG. 7", "experimental": "It has been previously shown, above, that PDE inhibition can increase the concentration of cyclic AMP in insect tissue. […] In order to do this, a fixed amount of butyl-benzylthio cyclic AMP was incubated in vitro for 4 hours in the presence of a tissue homogenated from tobacco hornworm nerve cord. In some tubes, IBMX (0.1 mM) was added to inhibit PDE. After the incubation, the amount of butyl-benzylthio cyclic AMP remaining was measured by protein binding assay (Brown et al., supra), using a standard curve based upon butyl-benzylthio cyclic AMP."}, "[13]": {"settings": "FIG. 3, hornworm larvae nerve cord"}}}
{"smiles": "NCC(O)c1ccc(O)cc1", "note": "(racemic) [octopamine, reference compound]", "values": [{"measurement": "stimulation of adenylate cyclase", "setting": "[1]", "value": "neither octopamine nor NC5 caused any significant enzyme stimulation"}, {"measurement": "activation of adenylate cyclase in nerve cord", "setting": "[2]; FIG. 1", "value": "potent activators"}, {"measurement": "Ki for inhibition of feeding by the larvae", "setting": "[3]; applied to leaves", "value": 0.5, "unit": "mg/leaf"}, {"measurement": "rank order antifeeding effectiveness", "setting": "[3]; based on the EC50 of the octopamine agonist, alone or +IBMX", "value": "DDCDM+IBMX=NC7+IBMX>Octopamine+IBMX=DDCDM alone>NC7 alone>octopamine alone"}, {"measurement": "behaviour of larvae feeding on treated leaves", "setting": "[3]; in vivo", "value": "tremors, hyperactivity, and leaf walk-off behavior"}, {"measurement": "pesticidal activity", "setting": "[3]; no IBMX", "value": "little pesticidal activity"}, {"measurement": "effect of addition of IBMX on antifeeding / pesticidal activity", "setting": "[3]", "value": "considerably elevated both cyclic AMP content and pesticidal activity"}, {"measurement": "stimulation of adenylate cyclase", "setting": "[4]", "value": "neither octopamine nor NC5 were active"}, {"measurement": "EC50 for stimulated light emission", "setting": "[5]", "value": "about 5 nmoles/tail"}]}
{"smiles": "CC(C)NC[C@H](O)c1ccc(O)c(O)c1", "note": "[(-)-isoproterenol, reference compound]", "values": [{"measurement": "stimulation of adenylate cyclase", "setting": "[4]", "value": "potently stimulates"}]}
{"smiles": "CNC=Nc1ccc(Cl)cc1C", "note": "[DCDM, N-demethylchlordimeform]", "values": [{"measurement": "potency relative to octopamine as partial agonist of light organ octopamine-stimulated adenylate cyclase", "setting": "[6]", "value": "about six-fold more potent than octopamine"}]}
{"smiles": "CCc1cccc(CC)c1N=C1NCCN1", "note": "[NC 5, 2-(2,6-diethylphenylimino)imidazolidine]", "values": [{"measurement": "Ka (half-maximal activation)", "setting": "[7]", "value": "about 1 μM"}, {"measurement": "Ka fold lower than that due to octopamine", "setting": "[7]", "value": 20, "unit": "fold"}, {"measurement": "maximal stimulation relative to octopamine", "setting": "[7]", "value": "equal to that caused by octopamine"}, {"measurement": "Ka ratio to octopamine", "setting": "[7]; Table 2, clonidines", "value": 19.0}, {"measurement": "Vmax (% OCT)", "setting": "[7]; Table 2, clonidines, N.A. = no activity", "value": 97, "unit": "% OCT"}, {"measurement": "activity as an octopamine antagonist", "setting": "[7]; combinations of octopamine and NC5", "value": "no activity as an octopamine antagonist"}, {"measurement": "lowest concentration with significant stimulation", "setting": "[7]; unit not given", "value": "3×10^-8"}, {"measurement": "inhibition of basal adenylate cyclase activity", "setting": "[1]", "value": "In none of the three mammalian tissues did NC5 cause any inhibition"}, {"measurement": "stimulation of adenylate cyclase", "setting": "[1]", "value": "neither octopamine nor NC5 caused any significant enzyme stimulation"}, {"measurement": "% Leaf Remaining", "setting": "[3]; Table 5, agonist 3 × 10^-1 gm/100 ml, IBMX 0.1 g/100 ml", "value": 70, "unit": "%"}, {"measurement": "effect of addition of IBMX on antifeeding / pesticidal activity", "setting": "[3]", "value": "substantial increases in the potency"}, {"measurement": "stimulation of adenylate cyclase", "setting": "[8]", "value": "almost completely inactive"}, {"measurement": "inhibition of basal adenylate cyclase activity", "setting": "[9]", "value": "In none of the three mammalian tissues did NC5 cause any inhibition"}, {"measurement": "stimulation of adenylate cyclase", "setting": "[4]", "value": "neither octopamine nor NC5 were active"}, {"measurement": "inhibition of basal adenylate cyclase activity", "setting": "[10]", "value": "In none of the three mammalian tissues did NC5 cause any inhibition"}, {"measurement": "EC50 for stimulated light emission", "setting": "[5]", "value": "about 0.3 nmoles"}, {"measurement": "times as potent as octopamine", "setting": "[5]; light emission EC50", "value": "more than 16 times"}]}
{"smiles": "C=C[C@@]1(C)CC(=O)[C@]2(O)[C@@]3(C)[C@@H](O)CCC(C)(C)[C@@H]3[C@H](O)[C@H](OC(C)=O)[C@@]2(C)O1", "note": "[forskolin]", "values": [{"measurement": "Ka ratio", "setting": "[11]", "value": 0.22}, {"measurement": "Vmax", "setting": "[11]", "value": 100, "unit": "%"}, {"measurement": "Ka ratio", "setting": "[2]; [13]", "value": 0.20}, {"measurement": "Vmax", "setting": "[2]; [13]", "value": "about 100%"}, {"measurement": "antifeeding activity", "setting": "[3]; compound itself, in words", "value": "has antifeeding activity"}, {"measurement": "effect of addition of IBMX on antifeeding / pesticidal activity", "setting": "[3]", "value": "enhanced"}]}
{"smiles": "CCCCNc1ncnc2c1nc(SCc1ccccc1)n2[C@@H]1O[C@@H]2COP(=O)(O)O[C@H]2[C@H]1O", "note": "[n-butylaminobenzylthio cyclic AMP, 6-n-butylamino-8-benzylthio-cyclic AMP, reference compound]", "values": [{"measurement": "amount of cyclic AMP analogue present after 4 hours, with IBMX versus without", "setting": "[12]", "value": "more than doubled"}, {"measurement": "antifeeding activity", "setting": "[3]; concentration of 1%, absence of IBMX", "value": "showed antifeeding activity"}, {"measurement": "effect of addition of IBMX on antifeeding / pesticidal activity", "setting": "[3]", "value": "increased by addition of IBMX"}]}
